Consider one molecule from PubChem BioAssay AID1671438.

This test concerns the target Tyrosine-protein kinase Yes (Homo sapiens) (UniProt P07947). Nature of the test: inhibitors of human YES1 tyrosine kinase activity – biochemical, Z'-LYTE, FRET readout, direct format, dose response (AID 1671438). The note with it: recombinant YES1.

Each structure is given as a SMILES string.

Chain of Tyrosine-protein kinase Yes (Homo sapiens) (P07947 whole entry, looked up): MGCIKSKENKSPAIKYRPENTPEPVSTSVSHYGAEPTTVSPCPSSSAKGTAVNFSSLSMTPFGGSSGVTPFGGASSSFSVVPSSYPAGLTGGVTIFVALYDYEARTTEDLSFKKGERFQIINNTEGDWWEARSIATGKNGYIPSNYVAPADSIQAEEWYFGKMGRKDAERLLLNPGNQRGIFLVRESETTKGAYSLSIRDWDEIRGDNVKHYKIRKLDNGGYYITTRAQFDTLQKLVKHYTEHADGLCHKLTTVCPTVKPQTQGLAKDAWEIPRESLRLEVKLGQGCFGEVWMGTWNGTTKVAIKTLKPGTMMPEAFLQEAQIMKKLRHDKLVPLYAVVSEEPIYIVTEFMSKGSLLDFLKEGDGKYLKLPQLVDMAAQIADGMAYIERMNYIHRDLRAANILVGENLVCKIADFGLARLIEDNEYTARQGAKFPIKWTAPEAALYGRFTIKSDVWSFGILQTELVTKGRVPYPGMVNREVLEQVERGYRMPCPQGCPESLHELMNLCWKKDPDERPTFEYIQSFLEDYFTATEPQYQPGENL

`COc1cc2ncnc(Nc3cccc(Cl)c3)c2cc1OC`: the concentration for half-maximal inhibition (IC50) was 0.924 µM.

What is called IC50 is the midpoint of a concentration-inhibition curve.
